The values that follow come from patent publication US7968081B2, “Peptide for diagnosing, preventing and treating atherosclerosis and uses thereof” (Kyungpook National University Industry—Academic Cooperation …, priority 2007, dated 2011).

Ends that are not written are not given here. * marks the point of attachment. FITC = O=C1OC2(c3ccc(O)cc3Oc3cc(O)ccc32)c2ccc(NC(=S)*)cc21

Assay [1] deals with IL-4-induced phosphorylation of STAT6. Nature of the assay: IL-4-induced phosphorylation of STAT6 in THP1 monocytes differentiated into macrophages (Western blot). It is filed as cell-based. Here is the method: (§1) THP1 monocytes were treated and activated with 100 ng/mL of phorbol myristate acetate (PMA) for 3 days to thereby induce differentiation into macrophages. The culture medium was replaced with a serum-free fresh medium, and the cells were cultured for 18 hours and treated with 0.67 nM of IL-4 alone for 10 min. Meanwhile, the peptide of the present invention alone or in conjunction with IL-4 was treated at concentrations of 0.67 nM (1×, one-fold concentration that of IL-4), 6.7 nM (10×, 10-fold concentration that of IL-4) and 67 nM (100×, 100-fold concentration that of IL-4) on cells which are under the same culture phase. After the reaction was complete, cells were disrupted according to a conventional method known in the art and cell lysates were subjected to electrophoresis and Western blot analysis using antibodies. As assay antibodies, STAT6 antibody and phospho-STAT6 (P-STAT6) antibody (Cell Signaling, USA), AKT antibody and phosphor-Thr308-AKT antibody or phosphor-Ser473 AKT antibody (Santa Cruz, USA) and β-actin antibody were used.

In assay [2] the test system is aortic atherosclerotic plaques. Nature of the assay: In vivo atherosclerotic targeting of selected phage clones (phage titer recovered from aorta). The arrangement: species or system mice. The settings on record: tested as phage clone; SEQ ID NO: 1 versus SEQ ID NO: 2. Here is the method: C57BL/6 mice (Ldlr−/−) into which deficiency of a low-density lipoprotein (LDL) receptor was introduced by a genetic engineering technique were fed daily for 10 weeks with 3 g of high-cholesterol diet, thereby inducing atherosclerosis in animals.
Thereafter, aorta were removed from each mouse and aortic tissues were ground to collect cells. The cells were treated with 100 μl of DMEM containing 1% NP-40 at 4° C. for 10 min, and 900 μl of BL21 E. coli culture as a host was then added to recover cell-bound phages. The recover phages were subjected to titer determination by a conventional method known in the art.

The test system of assay [3] is IL-4-induced phosphorylation of AKT. Nature of the assay: IL-4-induced Thr308 and Ser473 phosphorylation of AKT in THP1 monocytes differentiated into macrophages (Western blot). It counts as cell-based. The protocol: as §1
The subject of assay [4] is atherosclerotic plaque tissues. Description: In vivo atherosclerotic targeting of fluorescent dye-conjugated peptide (fluorescence microscopy of frozen sections). The settings on record: atherosclerosis-induced mice; final blood concentration 50 μM via left ventricle, circulation 15 min. An excerpt: C57BL/6 mice (Ldlr−/−) into which deficiency of a low-density lipoprotein (LDL) receptor was introduced by a genetic engineering technique were fed daily for 10 weeks with 3 g of high-cholesterol diet, thereby inducing atherosclerosis in animals. The high-cholesterol diet was a special animal feed containing 1.25% cholesterol, 15% fat and 0.5% cholate (Oriental Yeast Co., Japan).
Here, the peptide was synthesized by tagging an N-terminus of the peptide with FITC (fluorescein isothiocyanate) as a green fluorescent dye. The synthesized FITC-CRKRLDRNC peptide and a control peptide (FITC-NSSVDK) at final blood concentrations of 50 μM were injected into the atherosclerosis-induced mice via the left ventricle of animals, followed by circulation for 15 min. Thereafter, the aortae were removed from each mouse, and frozen sections were prepared, followed by Oil Red O (fat marker, Sigma-Aldrich, USA) staining or vWF (vascular endothelial cell marker, 1:5000 dilution, Abcam, USA) and Mac-3 (macrophage marker, 1:50 dilution, BD, USA) staining (Matter et al., Circulation Research, 95:1225-1233, 2004). In order to stain nuclei in tissues, a mounting medium containing a nuclear staining dye, 4′,6-diamidino-2-phenylindole (DAPI) (manufactured by Molecular Probe, USA) was treated on a slide, according to a conventional method known in the art, followed by fluorescence microscopic examination.

For assay [5], the target named is T1, IL-4R (Homo sapiens, UniProt P24394).
T1 sequence (P24394 26-825): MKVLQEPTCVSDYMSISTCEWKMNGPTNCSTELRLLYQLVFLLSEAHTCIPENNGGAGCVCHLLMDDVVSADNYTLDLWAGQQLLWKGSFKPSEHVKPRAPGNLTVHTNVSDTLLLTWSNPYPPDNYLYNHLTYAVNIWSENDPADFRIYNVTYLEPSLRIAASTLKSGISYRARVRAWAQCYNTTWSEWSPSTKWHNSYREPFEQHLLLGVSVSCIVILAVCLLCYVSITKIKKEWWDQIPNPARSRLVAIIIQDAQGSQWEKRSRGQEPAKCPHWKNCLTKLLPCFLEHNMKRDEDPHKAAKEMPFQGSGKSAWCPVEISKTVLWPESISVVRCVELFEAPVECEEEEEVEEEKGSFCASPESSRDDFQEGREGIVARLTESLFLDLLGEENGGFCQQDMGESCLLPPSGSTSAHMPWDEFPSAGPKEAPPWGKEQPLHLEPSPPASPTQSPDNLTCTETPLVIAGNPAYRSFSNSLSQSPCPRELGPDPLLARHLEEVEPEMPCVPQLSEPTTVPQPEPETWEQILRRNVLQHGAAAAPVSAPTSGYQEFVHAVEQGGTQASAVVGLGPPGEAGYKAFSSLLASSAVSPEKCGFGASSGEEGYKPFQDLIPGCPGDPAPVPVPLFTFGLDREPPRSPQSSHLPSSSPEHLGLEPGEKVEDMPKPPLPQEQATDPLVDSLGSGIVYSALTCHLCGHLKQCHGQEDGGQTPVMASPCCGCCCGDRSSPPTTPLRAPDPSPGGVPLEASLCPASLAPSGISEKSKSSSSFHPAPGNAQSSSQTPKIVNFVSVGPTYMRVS
Description: Bindability of peptide to IL-4R-expressing CHO-K1 cells (fluorescence microscopy). It counts as binding. The settings on record: 10 μM peptide, room temperature, 1 hour. The source says:
In order to further confirm roles of IL-4R as the receptor for the peptide of the present invention, a plasmid capable of expressing IL-4R (Cat. #TC119877, Origene, USA) was introduced into IL-4R-deficient CHO-K1 cells according to a conventional method known in the art, followed by expression of IL-4R, and binding of IL-4R with the peptide of the present invention was examined.
The cells were stained with antibodies (1:200 dilution) directed against. IL-4R and cell nuclei were stained with DAPI, followed by fluorescence microscopic examination. As a result, a large amount of IL-4R (red fluorescence) was present on the cell surface (FIG. 6B). Next, CHO-K1 and CHO-K1/IL-4R cells were reacted with 10 μM of the FITC-C-RKRLDRNC peptide at room temperature for 1 hour.

Assay [6] addresses T1, IL-4R. Description: Bindability of peptide to HT-1376 cells with inhibited expression of IL-4R (siRNA). It is filed as binding. Also noted: HT-1376 cells that essentially show constitutive expression of IL-4R; endogenous in cells; host or cells: HT-1376. The settings on record: same conditions as in FIG. 6 (10 μM, room temperature, 1 hour). The protocol: Silencing RNA for IL-4R (Cat. #16708A, Ambion, USA) was introduced into HT-1376 cells that essentially show constitutive expression of IL-4R, according to a conventional method known in the art, and treated for 24 hours to thereby result in substantially no expression of IL-4R, followed by evaluation of peptide binding. More specifically, 10 nM of IL-4R silencing RNA synthesized by the manufacturer was mixed with a siPORT™ NeoFX™ lipid transfection agent (Ambion, USA), and the mixture was treated for 24 hours on HT-1376 cells grown in a 4-well chamber slide, such that IL-4R silencing RNA is incorporated into the cells. Thereafter, the culture medium was replaced with one containing 10% bovine serum and the cells were recovered for 24 hours. After staining of cells with IL-4R antibodies and nuclear DAPI staining under the same conditions as in FIG. 6, a cellular expression level of IL-4R was examined. After IL-4R staining, the FITC-CRKRLDRNC peptide was reacted with the cells under the same conditions as in FIG. 6, and a binding degree of the peptide was measured.

Assay [7] concerns atherosclerotic plaque tissues. Nature of the assay: In vivo atherosclerotic targeting of radioisotope-conjugated peptide (autoradiography of aortae). The arrangement: species or system mice. The settings on record: tail vein, circulation 15 min. The protocol: In order to evaluate in vivo targetability of an inventive peptide through a higher sensitivity method, the peptide was synthesized and then an N-terminus of the peptide was tagged with a radioisotope (^111In). The ^111In-tagged peptide of the present invention at a dose of 160 μCi was injected via the tail vein into the blood of atherosclerotic mice and normal mice, followed by circulation for 15 min. Thereafter, aortae were removed from each mouse and autoradiography with X-ray film exposure was carried out. As a control group, the ^123I-tagged peptide (^123I-CLEVSRKNC) was injected at a dose of 104 μCi.

[8] abbreviates: peptide at 100-fold concentration.

As to “CRKRLDRNC (peptide 1, completely synthesized) [peptide of the present invention]”, the “effect on IL-4-induced phosphorylation of STAT6” value in assay [1] (peptide at 100-fold concentration that of IL-4 (67 nM) with 0.67 nM IL-4) was “significant inhibitory effects”. Besides, the “amount of total STAT6 proteins” value in assay [1] (peptide with IL-4) is recorded as “not affected”. Further, the “atherosclerotic targeting, comparison of the two selected phage clones” value in assay [2] is “more intense atherosclerotic targeting”. In assay [3] (setting [8]), the “antagonistic effect on Ser473 phosphorylation of AKT relative to Thr308” value is listed as “greater antagonistic effects” and the “level of Ser473 phosphorylation of AKT versus control group not treated with IL-4” value was “inhibited to a lower level than that of the control group”. Further, the “effect on IL-4-induced phosphorylation of AKT (Thr308 and Ser473)” value in assay [3] (peptide at 100-fold concentration (67 nM) with 0.67 nM IL-4) is “inhibited”.

With “FITC-NSSVDK ({FITC}-NSSVDK) [FITC-labeled control peptide, reference compound]”, in assay [4], the “peptide found in aortic atherosclerotic plaque tissues (green fluorescence)” value was “substantially no control peptide was found”. Further, the “binding to CHO-K1/IL-4R cells (IL-4R-expressing)” value with IL-4R [5] is reported as “no binding”. Also, in the assay with IL-4R [6], the “binding to HT-1376 cells (constitutive expression of IL-4R)” value is given as “almost no binding”.

With “^123I-CLEVSRKNC (not fully specified (N-terminus); cysteine pairing not given here; also: 123I label, attachment not given here) [123I-tagged control peptide for autoradiography]”, the “radioactivity resulting from aortic targeting of the peptide” value in assay [7] (aortae of atherosclerotic mice, 160 μCi (111In peptide) or 104 μCi (123I control)) is “substantially no detection of radioactivity”; in assay [7] (aortae of normal mice, 104 μCi (123I control)) it was “substantially no detection of radioactivity”.

B1: IL-4: cytokine used as stimulus of STAT6 and AKT phosphorylation (protein)
chain: HKCDITLQEIIKTLNSLTEQKTLCTELTVTDIFAASKNTTEKETFCRAATVLRQFYSHHEKDTRCLGATAQQFHRHKQLIRFLKRLDRNLWGLAGLNSCPVKEANQSTLENFLERLKTIMREKYSKCSS
As to B1, the “phosphorylation of STAT6 induced by IL-4” value in assay [1] (0.67 nM IL-4 alone, 10 min) is “significant increase”. In addition, the “Thr308 and Ser473 phosphorylation of AKT induced by IL-4” value in assay [3] (0.67 nM IL-4, 10 min) is given as “slightly increased”.
